Data from article PMC4556614 (PLoS ONE, 2015).
Read-outs that look alike come from different tables or passages of the source.

What was measured:
OCT2 [1] = target: T1, OCT2 (Homo sapiens, UniProt O15244); assay: in vitro
Method: (§1) For the transport assays HEK cell lines stably transfected with human OCT2 (HEK-OCT2) or the vector only (HEK-VC) were used. The HEK-OCT2 cell line was established and characterized previously. HEK-OCT2 and HEK-VC cells were seeded in poly-D-lysine (Sigma Aldrich, Taufkirchen, Germany) coated 48-well-plates at a density of 1.2 x 10^5 cells/well. […] Uptake was stopped by washing the cells three times with ice-cold uptake buffer. Afterwards, cells were lysed with 5 mM Tris buffer (pH 7.3) containing 0.1% Triton X-100. The intracellular accumulation of radioactivity was determined by liquid scintillation counting (PerkinElmer, Rodgau-Jügesheim, Germany) and protein concentration of each lysate was measured with bicinchonic acid assay (BCA Protein Assay Kit, Thermo Fisher Scientific, Waltham, MA, USA). We performed two to eight experiments each on at least two separate days, i.e., n = 4–16.
Experimental half-maximal inhibitory concentrations (IC50 values) were measured as the substrate uptake in the presence of increasing concentrations of test drugs. These experiments were performed as described above (three experiments each on two separate days, i.e., n = 6). IC50 values were calculated with GraphPad Prism 5.0 (GraphPad Software, San Diego, CA, USA). IC50 was estimated by a sigmoidal inhibition model and was fit to the equation V = V 0 / (1 + (I / IC50 ) ^n ) by nonlinear regression. V is the net uptake in the presence of the inhibitor, V 0 is the net uptake in the absence of the inhibitor, I is the concentration of the inhibitor and n is the slope.

OCT2 [2] = target: T1, OCT2; assay: Inhibition of OCT2-mediated [3H]MPP+ uptake in HEK-OCT2 cells
Method: as §1

[3] = test drug 20 µM, MPP+ 50 μM, 3 min, net uptake HEK-OCT2 minus HEK-VC
[4] = test drug 200 µM, MPP+ 50 μM, 3 min, net uptake HEK-OCT2 minus HEK-VC
[5] = human, pH 7.3, probe [3H]MPP+, 50 µM

T1 sequence (O15244 whole entry): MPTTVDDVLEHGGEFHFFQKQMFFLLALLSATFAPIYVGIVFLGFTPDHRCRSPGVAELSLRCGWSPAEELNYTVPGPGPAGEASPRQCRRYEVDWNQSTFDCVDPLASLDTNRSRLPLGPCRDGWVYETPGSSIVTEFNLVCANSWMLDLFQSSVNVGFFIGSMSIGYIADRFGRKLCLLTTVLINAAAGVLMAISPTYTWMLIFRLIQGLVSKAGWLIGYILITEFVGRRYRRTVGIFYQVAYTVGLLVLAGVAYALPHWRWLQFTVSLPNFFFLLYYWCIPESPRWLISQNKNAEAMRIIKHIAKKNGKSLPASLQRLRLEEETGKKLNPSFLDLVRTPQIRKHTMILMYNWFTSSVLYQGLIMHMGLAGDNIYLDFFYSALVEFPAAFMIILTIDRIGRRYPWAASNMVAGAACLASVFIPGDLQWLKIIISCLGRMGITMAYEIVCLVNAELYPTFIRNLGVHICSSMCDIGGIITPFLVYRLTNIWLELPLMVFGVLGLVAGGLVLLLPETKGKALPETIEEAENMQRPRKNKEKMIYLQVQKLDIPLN

Compound | % Inhibition of OCT2-dependent MF uptake at 20 µM (mean ± SEM) (OCT2 [1]; human, pH 7.3) | % Inhibition of OCT2-dependent MF uptake at 200 µM (mean ± SEM) (OCT2 [1]; human, pH 7.3) | % Inhibition of OCT2-dependent MPP+ uptake at 20 µM (mean ± SEM) (OCT2 [2]; [3]) [%] | % Inhibition of OCT2-dependent MPP+ uptake at 200 µM (mean ± SEM) (OCT2 [2]; [4]) [%] | other results
Cn1c(=O)c2[nH]cnc2n(C)c1=O [Theophylline] | -21.5 ± 13.0 | -36.6 ± 10.9 | -12.9 ± 5.7 | -16.7 ± 6.8 | –
CC(=O)Oc1ccccc1C(=O)O [ASA, acetylsalicylic acid] | -18.7 ± 11.0% | 1.3 ± 8.9% | -10.6 ± 5.7 | -1.5 ± 4.5 | –
NCCCC[C@H](N[C@@H](CCc1ccccc1)C(=O)O)C(=O)N1CCC[C@H]1C(=O)O [Lisinopril] | -10.3 ± 12.9 | 2.9 ± 9.0 | 16.0 ± 9.0 | 9.8 ± 11.8 | –
O=C(NCCN1CCOCC1)c1ccc(Cl)cc1 [Moclobemide] | 4.3 ± 2.8 | 48.9 ± 2.1 | -38.7 ± 8.5 | -16.1 ± 17.7 | –
CN1C(=O)C(O)N=C(c2ccccc2Cl)c2cc(Cl)ccc21 (stereo not shown) [Lormetazepam] | 77.0 ± 0.6 | 92.4 ± 0.5 | – | – | % Inhibition of OCT2-dependent MPP+ uptake at 20 µM (mean ± SEM) (OCT2 [2]; human, pH 7.3): 47.8 ± 8.4; % Inhibition of OCT2-dependent MPP+ uptake at 200 µM (mean ± SEM) (OCT2 [2]; human, pH 7.3): 69.8 ± 5.3
Cl.Cl.OCCN1CCN(CCC=C2c3ccccc3Sc3ccc(C(F)(F)F)cc32)CC1 (mixture of isomers) [Flupentixol] | – | – | 22.9 ± 7.5 | 107.8 ± 5.0 | % Inhibition of OCT2-dependent MF uptake at 20 µM (mean ± SEM) (OCT2 [1]): 75.0 ± 7.9; % Inhibition of OCT2-dependent MF uptake at 200 µM (mean ± SEM) (OCT2 [1]): 96.1 ± 2.1
CC(C)NCC(O)COc1ccc(COCCOC(C)C)cc1 (stereo not shown) [Bisoprolol] | 57.2 ± 4.0% | 75.8 ± 4.5% | -16.1 ± 2.2 | 11.8 ± 5.5 | –
Nc1nc(N)c2nc(-c3ccccc3)c(N)nc2n1 [Triamterene] | 48.0 ± 5.1 | 92.0 ± 2.1 | 6.6 ± 11.2 | 17.5 ± 3.8 | –
COc1ccc(C(CN(C)C)C2(O)CCCCC2)cc1 (stereo not shown) [Venlafaxine] | 17.6 ± 3.2 | 72.2 ± 2.5 | -43.3 ± 13.0 | -54.3 ± 13.1 | –
Cc1cccc(C)c1NC(=O)c1cc(S(N)(=O)=O)c(Cl)cc1O [Xipamide] | -22.3 ± 9.7 | 9.4 ± 9.2 | 10.5 ± 3.7 | 6.6 ± 9.3 | –
O=C1[C@H](CC[C@H](O)c2ccc(F)cc2)[C@@H](c2ccc(O)cc2)N1c1ccc(F)cc1 [Ezetimibe] | – | – | – | – | inhibition at 3 min, 20 µM (OCT2 [1]; human, pH 7.3, probe [14C]metformin, 1000 µM, % Inhibition of OCT2-dependent MF uptake at 20 µM (mean ± SEM), test drug 20 µM, metformin 1000 μM, 3 min, net uptake HEK-OCT2 minus HEK-VC): -6.8 ± 9.7%; inhibition at 3 min, 200 µM (OCT2 [1]; human, pH 7.3, probe [14C]metformin, 1000 µM, % Inhibition of OCT2-dependent MF uptake at 200 µM (mean ± SEM), test drug 200 µM, metformin 1000 μM, 3 min, net uptake HEK-OCT2 minus HEK-VC): 0.2 ± 10%; inhibition at 3 min, 20 µM (OCT2 [2]; [5]): -12.6 ± 12.4%; inhibition at 3 min, 200 µM (OCT2 [2]; [5]): -13.2 ± 11.5%
COc1ccc2c3c1O[C@H]1C[C@@H](O)C=C[C@@]31CCN(C)C2 [Galantamine] | 51.5 ± 2.8 | 92.5 ± 1.2 | -11.7 ± 9.4 | 12.3 ± 7.0 | –
Cc1nc2n(c(=O)c1CCN1CCC(c3noc4cc(F)ccc34)CC1)CCCC2 [Risperidone] | 81.0 ± 4.4 | 98.3 ± 3.1 | 57.8 ± 5.2 | 78.4 ± 1.5 | –
CNC(=C[N+](=O)[O-])NCCSCc1ccc(CN(C)C)o1 [Ranitidine] | 65.2 ± 7.7 | 91.5 ± 3.8 | -7.9 ± 12.9 | 11.6 ± 3.4 | –
O=C1Nc2ccc(Cl)cc2C(c2ccccc2)=NC1O (stereo not shown) [Oxazepam] | – | 97.5 ± 0.5 | – | – | % Inhibition of OCT2-dependent MPP+ uptake at 20 µM (mean ± SEM) (OCT2 [2]; human, pH 7.3): 37.6 ± 4.7; % Inhibition of OCT2-dependent MPP+ uptake at 200 µM (mean ± SEM) (OCT2 [2]; human, pH 7.3): 44.6 ± 6.5
C[C@]12CC[C@@H]3c4ccc(O)cc4CC[C@H]3[C@@H]1CC[C@@H]2O [Estradiol] | 57.9 ± 5.4 | 66.6 ± 2.1 | 10.6 ± 4.2 | 19.0 ± 6.5 | –
O=C1Nc2ccc(Cl)cc2C(c2ccccc2Cl)=NC1O (stereo not shown) [Lorazepam] | 32.0 ± 2.2 | 96.5 ± 1.0 | 0.3 ± 5.1 | 17.7 ± 7.3 | –
CN(C)CC/C=C1/c2ccccc2Sc2ccc(Cl)cc21 [Chlorprothixene] | 66.8 ± 7.9% | 98.4 ± 0.9% | 29.9 ± 7.5 | 91.7 ± 2.2 | –
O=C(O)Cc1ccccc1Nc1c(Cl)cccc1Cl [Diclofenac] | 14.3 ± 8.8 | 59.1 ± 6.5 | 8.8 ± 8.9 | 24.0 ± 4.0 | –
CCOC(=O)C1=C(C)NC(C)=C(C(=O)OC)C1c1cccc([N+](=O)[O-])c1 (stereo not shown) [Nitrendipine] | 0.4 ± 9.8 | 53.2 ± 3.7 | 4.0 ± 6.3 | -2.4 ± 5.0 | –
CCOC(=O)[C@H](CCc1ccccc1)N[C@@H](C)C(=O)N1[C@H](C(=O)O)C[C@@H]2CCC[C@@H]21 [Ramipril] | 12.9 ± 4.1 | 35.4 ± 2.9 | 72.5 ± 7.4 | 83.6 ± 6.2 | –
C[C@H]1c2cccc(O)c2C(=O)C2=C(O)[C@]3(O)C(=O)C(C(N)=O)=C(O)[C@@H](N(C)C)[C@@H]3[C@@H](O)[C@@H]21 [Doxycycline] | -21.8 ± 1.9 | 1.9 ± 9.1 | -12.9 ± 13.1 | -16.6 ± 11.7 | –
O=C1CN=C(c2ccccn2)c2cc(Br)ccc2N1 [Bromazepam] | 27.6 ± 2.6% | 77.9 ± 1.4% | – | – | % Inhibition of OCT2-dependent MPP+ uptake at 20 µM (mean ± SEM) (OCT2 [2]; human, pH 7.3): -16.3 ± 9.0%; % Inhibition of OCT2-dependent MPP+ uptake at 200 µM (mean ± SEM) (OCT2 [2]; human, pH 7.3): 14.7 ± 8.3%
